Results from patent publication US20240208954A1, “OXADIAZOLE COMPOUND, PREPARATION METHOD THEREFOR, PHARMACEUTICAL COMPOSITION AND USE THEREOF” (SHANGHAI INSTITUTE OF MATERIA MEDICA, CHINESE ACADEMY OF …, priority 2020, published 2024).
pEC50: −log10 of the molar value. Like-named read-outs stand apart in the source and are kept apart here.

How the values were obtained:
Type in all cases: cell-based
S1P5 = S1P5 (Homo sapiens, UniProt Q9H228); experiment: Subtype selectivity study, method of Experimental Example 1
Description: (§1) Experimental method: CHO-K1/Ga15/EDG1 cells stably expressing EDG1 receptor were cultured in a 10 cm culture dish in a 37° C./5% CO2incubator, and digested when the confluence rate reached 80%-85%. The cells in collected cell suspension were inoculated into 384 microtiter plates at appropriate density, and then placed in a 37° C./5% CO2 incubator and continue to incubate for at least 18 hours before using for experiments. After 18-20 hours, the cell culture plat was taken out and added with dye working solution, and then the plate was placed in a 37° C./5% CO2 incubator for 1 hour, and finally equilibrated at room temperature for 15 minutes. Positive agonist working solution was added, and RFU values were detected and recorded. The 384 microplates, cell plates and tip box with positive agonist working solution were placed into FLIPRTM TETRA and the agonist mode assay program was run with an overall assay time of 120 seconds. The positive agonist working fluid was added to the cell culture plate at the 21st second. 384 microplate, cell plate and gun head box containing the positive antagonist working fluid were put into the FLIPRTM TETRA. The antagonistic mode detection program, the overall detection time of the instrument was 120 seconds, and positive antagonist working solution was added to the cell culture plate at the 21st second. Data processing: Raw data were obtained via ScreenWorks (version 3.1) and saved as *FMD files on the […] computer network system. Data were collected and analyzed using Excel and GraphPad Prism 6 software programs. […] The four-parameter equation was as follows: y=Bottom+(Top-Bottom)/(1+10^((LogEC50/IC50-X)*HillSlope)), wherein X is the Log value of the concentration and Y was the inhibition rate. The S1P receptor selectivity was tested for different subtypes using the method described in Experimental Example 1.

S1P2 = S1P2 (Homo sapiens, UniProt O95136); experiment: as above
Description: as §1

S1P4 = molecular target: T1, S1P4 (Homo sapiens, UniProt O95977); experiment: as above
T1 sequence (O95977 1-384): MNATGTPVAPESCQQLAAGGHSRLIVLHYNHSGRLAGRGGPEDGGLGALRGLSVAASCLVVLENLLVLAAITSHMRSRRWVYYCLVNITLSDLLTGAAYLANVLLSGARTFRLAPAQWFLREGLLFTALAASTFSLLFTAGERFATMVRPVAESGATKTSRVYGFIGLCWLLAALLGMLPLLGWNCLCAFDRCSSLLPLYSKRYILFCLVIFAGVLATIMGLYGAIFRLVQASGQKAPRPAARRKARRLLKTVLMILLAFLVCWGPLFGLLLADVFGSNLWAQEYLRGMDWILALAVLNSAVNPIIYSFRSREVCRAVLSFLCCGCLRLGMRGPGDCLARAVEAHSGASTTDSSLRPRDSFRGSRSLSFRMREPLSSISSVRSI
Description: as §1

S1PR3 = S1PR3 (Homo sapiens, UniProt Q99500); experiment: Agonistic activity test on S1P receptors, FLIPR
Description: (§2) Instrument: FLIPR™ TETRA (Molecular Device)
(§3) Sample processing: Before the experiment, the working solution with the corresponding concentration was prepared by diluting with GPCR dilution buffer.
(§4) After 18-20 hours, the cell culture plat was taken out and added with dye working solution, and then the plate was placed in a 37° C./5% CO2 incubator for 1 hour, and finally equilibrated at room temperature for 15 minutes. Positive agonist working solution was added, and RFU values were detected and recorded. […] The positive agonist working fluid was added to the cell culture plate at the 21st second. […] The antagonistic mode detection program, the overall detection time of the instrument was 120 seconds, and positive antagonist working solution was added to the cell culture plate at the 21st second.
(§5) Data processing: Raw data were obtained via ScreenWorks (version 3.1) and saved as *FMD files on the Kingsray computer network system. Data were collected and analyzed using Excel and GraphPad Prism 6 software programs. For each well, the average fluorescence intensity value from 1 to 20 seconds was used as the baseline, and the maximum fluorescence intensity value from 21 to 120 seconds minus the minimum fluorescence intensity value from 21 to 120 seconds was the relative fluorescence intensity value (ARFU), from which the percentage activation or inhibition can be calculated based on the following equation.
(§6) % Activation Rate=(ΔRFUCompound-ΔRFUBackground)/(ΔRFUAgonist control-ΔRFUBackground)×100%
(§7) The data was analyzed using GraphPad Prism 6 with a four-parameter equation to calculate the EC50 and IC50 values. The four-parameter equation was as follows: y=Bottom+(Top-Bottom)/(1+10^((LogEC50/IC50-X)*HillSlope)), wherein X is the Log value of the concentration and Y was the inhibition rate.

S1PR1 = molecular target: T2, S1PR1 (Homo sapiens, UniProt P21453); experiment: Agonistic activity test on S1P receptors, FLIPR, CHO-K1/Ga15/EDG1 cells
T2 construct: host or cells: CHO-K1 co-expressing Ga15
Description: as §2
Experimental materials: CHO-K1/Ga15/EDG1 cells constructed by GenScript autonomously.
as §3, §4, §5, §6, §7

[1] = FLIPR agonist mode, read-out: S1PR3 EC50
[2] = subtype selectivity study, read-out: S1P3 EC50
[3] = CHO-K1/Ga15/EDG1 cells, FLIPR agonist mode, read-out: S1PR1 EC50

T2 sequence (P21453 whole entry): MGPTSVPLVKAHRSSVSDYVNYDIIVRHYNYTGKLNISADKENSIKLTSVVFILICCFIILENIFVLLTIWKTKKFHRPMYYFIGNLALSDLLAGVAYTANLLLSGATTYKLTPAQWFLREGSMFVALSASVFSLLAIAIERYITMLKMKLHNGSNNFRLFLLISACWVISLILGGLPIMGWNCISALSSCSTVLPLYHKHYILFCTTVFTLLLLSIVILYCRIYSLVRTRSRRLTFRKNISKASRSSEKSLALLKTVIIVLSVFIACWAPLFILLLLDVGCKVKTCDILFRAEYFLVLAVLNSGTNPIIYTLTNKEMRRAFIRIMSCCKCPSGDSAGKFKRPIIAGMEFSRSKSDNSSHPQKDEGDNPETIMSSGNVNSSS
S1PR3, sequence (Q99500 whole entry, species assumed): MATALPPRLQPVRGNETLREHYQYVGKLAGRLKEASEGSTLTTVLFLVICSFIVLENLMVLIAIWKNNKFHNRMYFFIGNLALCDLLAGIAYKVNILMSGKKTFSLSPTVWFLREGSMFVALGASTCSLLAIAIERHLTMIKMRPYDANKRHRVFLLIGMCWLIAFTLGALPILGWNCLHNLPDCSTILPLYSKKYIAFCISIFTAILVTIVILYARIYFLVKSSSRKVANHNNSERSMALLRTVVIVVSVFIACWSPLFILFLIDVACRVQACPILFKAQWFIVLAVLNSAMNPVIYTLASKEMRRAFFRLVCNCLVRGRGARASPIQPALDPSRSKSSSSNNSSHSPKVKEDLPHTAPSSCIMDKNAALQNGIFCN
S1P2, sequence (O95136 whole entry, species assumed): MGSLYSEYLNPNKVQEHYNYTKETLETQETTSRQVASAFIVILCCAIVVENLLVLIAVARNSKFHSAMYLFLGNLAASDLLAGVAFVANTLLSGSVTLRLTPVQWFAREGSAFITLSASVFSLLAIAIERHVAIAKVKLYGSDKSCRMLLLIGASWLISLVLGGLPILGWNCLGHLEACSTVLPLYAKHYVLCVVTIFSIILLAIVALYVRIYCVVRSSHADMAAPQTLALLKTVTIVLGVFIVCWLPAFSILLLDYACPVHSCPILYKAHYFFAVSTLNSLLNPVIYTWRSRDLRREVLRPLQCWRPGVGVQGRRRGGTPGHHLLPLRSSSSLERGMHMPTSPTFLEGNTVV
S1P5, sequence (Q9H228 whole entry, species assumed): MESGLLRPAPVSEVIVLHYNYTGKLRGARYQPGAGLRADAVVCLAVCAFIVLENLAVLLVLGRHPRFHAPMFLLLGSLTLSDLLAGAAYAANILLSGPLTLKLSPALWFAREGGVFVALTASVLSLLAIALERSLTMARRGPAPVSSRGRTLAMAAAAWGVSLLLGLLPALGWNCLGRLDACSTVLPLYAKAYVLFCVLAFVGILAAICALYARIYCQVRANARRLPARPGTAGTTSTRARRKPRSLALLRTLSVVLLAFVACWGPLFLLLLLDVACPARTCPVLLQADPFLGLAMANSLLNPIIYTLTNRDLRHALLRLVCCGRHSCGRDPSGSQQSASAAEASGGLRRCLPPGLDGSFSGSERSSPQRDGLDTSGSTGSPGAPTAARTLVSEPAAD

CC(C)Oc1ccc(-c2nc(-c3cccc4c3CC[C@@H]4NCCO)no2)cc1C#N [Ozanimod]
pEC50 (S1P5): 7.97 | pEC50 (S1P2): < 5.00 | pEC50 (S1P4): < 5.00 | pEC50 (S1PR3; [1]): < 5.00 | pEC50 (S1PR3; [2]): 5.58

CCc1cc(/C(C)=N/OCc2ccc(C3CCCCC3)c(C(F)(F)F)c2)ccc1CN1CC(C(=O)O)C1 [Siponmod, reference compound]
pEC50 (S1PR1; [3]): 6.26 | pEC50 (S1PR1; subtype selectivity study, read-out: S1P1 EC50): 6.26 | pEC50 (S1P5): 9.01 | pEC50 (S1P2): < 5.00 | pEC50 (S1P4): 6.12 | pEC50 (S1PR3; [1]): < 5.00 | pEC50 (S1PR3; [2]): < 6.00

O=C(O)C1CN(Cc2ccc(-c3noc(-c4ccc(OCc5ccccc5)cc4)n3)c3ccccc23)C1 [Compound A18, 1-((4-(5-(4-(benzyloxy)phenyl)-1,2,4-oxadiazol-3-yl)naphthalen-1-yl)methyl) azetidine-3-carboxylic acid hydrochloric acid]
EC50 (S1PR1; CHO-K1/Ga15/EDG1 cells, FLIPR agonist mode, cells printed in μM, read-out: S1PR1 EC50): > 10 µM | pEC50 (S1PR3; [1]): < 5.00

CCCc1ccc(-c2nc(-c3ccc(CN4CC(C(=O)O)C4)c4ccccc34)no2)cc1 [Compound A21, 1-((4-(5-(4-propylphenyl)-1,2,4-oxadiazol-3-yl)naphthalen-1-yl)methyl) azetidine-3-carboxylic acid hydrochloric acid]
pEC50 (S1PR1; [3]): 5.90 | pEC50 (S1PR3; [1]): < 5.00

O=C(O)C1CN(Cc2ccc(-c3noc(-c4ccc(F)cc4)n3)c3ccccc23)C1 [Compound A23, 1-((4-(5-(4-fluorophenyl)-1,2,4-oxadiazol-3-yl)naphthalen-1-yl)methyl) azetidine-3-carboxylic acid hydrochloric acid]
pEC50 (S1PR1; [3]): 5.71 | pEC50 (S1PR3; [1]): < 5.00

CC(C)(C)Oc1ccc(-c2nc(-c3ccc(CN4CC(C(=O)O)C4)c4ccccc34)no2)cc1 [Compound A15, 1-((4-(5-(4-(tert-butoxy)phenyl)-1,2,4-oxadiazol-3-yl)naphthalen-1-yl)methyl) azetidine-3-carboxylic acid hydrochloric acid]
pEC50 (S1PR1; [3]): 5.91 | pEC50 (S1PR3; [1]): < 5.00

O=C(O)C1CN(Cc2ccc(-c3noc(-c4cccc(F)c4)n3)c3ccccc23)C1 [Compound A25, 1-((4-(5-(3-fluorophenyl)-1,2,4-oxadiazol-3-yl)naphthalen-1-yl)methyl) azetidine-3-carboxylic acid hydrochloric acid]
pEC50 (S1PR1; [3]): 5.98 | pEC50 (S1PR3; [1]): < 5.00

CC(C)Oc1ccc(-c2nc(-c3ccc(CN4CC(C(=O)O)C4)c4ccccc34)no2)cc1Cl [Compound A10, 1-((4-(5-(3-chloro-4-isopropoxyphenyl)-1,2,4-oxadiazol-3-yl)naphthalen-1-yl)methyl) azetidine-3-carboxylic acid hydrochloric acid]
pEC50 (S1PR1; [3]): 6.16 | pEC50 (S1PR3; [1]): < 5.00

CC(C)Oc1ccc(-c2nc(-c3ccc(CN4CC(C(=O)O)C4)c4ccccc34)no2)cc1C(F)(F)F [Compound A12, 1-((4-(5-(4-isopropoxy-3-(trifluoromethyl)phenyl)-1,2,4-oxadiazol-3-yl)naphthalen-1-yl)methyl) azetidine-3-carboxylic acid hydrochloric acid]
pEC50 (S1PR1; [3]): 6.45 | pEC50 (S1PR3; [1]): < 5.00
